The values below come from patent US12180192B2, “Modulators of THR-β and methods of use thereof” (ALIGOS THERAPEUTICS, INC., priority 2019, dated 2024).

Experiment [1] deals with T1, THR beta (Homo sapiens, UniProt P10828).
T1 construct: expressed in transfected cells; host or cells: HEK293T (ATCC CRL-3216)
T1 sequence (P10828 1-461): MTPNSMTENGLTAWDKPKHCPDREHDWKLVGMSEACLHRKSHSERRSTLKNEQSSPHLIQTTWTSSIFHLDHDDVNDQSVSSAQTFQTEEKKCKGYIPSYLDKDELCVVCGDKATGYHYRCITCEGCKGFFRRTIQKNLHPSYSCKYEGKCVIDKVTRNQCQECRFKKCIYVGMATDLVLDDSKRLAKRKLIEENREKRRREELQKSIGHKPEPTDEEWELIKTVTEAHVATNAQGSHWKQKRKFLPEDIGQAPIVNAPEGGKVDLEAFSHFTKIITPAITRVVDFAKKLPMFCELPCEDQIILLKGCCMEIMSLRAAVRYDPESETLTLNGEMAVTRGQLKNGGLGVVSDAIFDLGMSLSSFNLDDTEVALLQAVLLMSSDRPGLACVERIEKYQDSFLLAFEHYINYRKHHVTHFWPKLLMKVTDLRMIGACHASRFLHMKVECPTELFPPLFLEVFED
T1 sequence (P19793 1-462 partner): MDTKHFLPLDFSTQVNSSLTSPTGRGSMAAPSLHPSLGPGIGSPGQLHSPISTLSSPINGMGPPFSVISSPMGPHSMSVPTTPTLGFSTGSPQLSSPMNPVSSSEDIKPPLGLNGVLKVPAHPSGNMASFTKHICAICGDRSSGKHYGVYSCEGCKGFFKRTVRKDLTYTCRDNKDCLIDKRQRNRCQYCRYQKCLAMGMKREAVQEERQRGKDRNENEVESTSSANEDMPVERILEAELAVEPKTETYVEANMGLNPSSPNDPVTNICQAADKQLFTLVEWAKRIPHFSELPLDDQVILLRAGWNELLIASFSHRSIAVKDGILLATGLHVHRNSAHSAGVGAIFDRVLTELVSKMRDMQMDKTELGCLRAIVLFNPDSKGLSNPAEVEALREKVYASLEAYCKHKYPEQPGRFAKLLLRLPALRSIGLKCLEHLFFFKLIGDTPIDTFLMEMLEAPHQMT
The experiment in a line: HEK293T THR beta/RXR luciferase reporter assay (Assay 2). In kind it is cell-based. The settings on record: for Emax: HEK-293T, Table 5, Assay 2, THRβ, read-out: Activity category Assay 2 THRβ (Emax); for EC50: THR-beta, HEK293T reporter assay, read-out: Activity category Assay 2 (EC50, THR-beta agonist). An outline of the steps:
(§1)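 Compounds tested as ten-point five-fold dilution series for 18-24 h on transiently transfected HEK293T cells carrying TRE-driven luciferase plus RXR and either THR alpha or beta expression plasmids. Read-out by One-Glo luminescence, expressed as percent agonism relative to negative and positive controls.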

In experiment [2] the target is T2, THR alpha (Homo sapiens, UniProt P10827).
T2 construct: expressed in transfected cells; host or cells: HEK293T (ATCC CRL-3216)
T2 sequence (P10827 1-410 isoform P10827-2): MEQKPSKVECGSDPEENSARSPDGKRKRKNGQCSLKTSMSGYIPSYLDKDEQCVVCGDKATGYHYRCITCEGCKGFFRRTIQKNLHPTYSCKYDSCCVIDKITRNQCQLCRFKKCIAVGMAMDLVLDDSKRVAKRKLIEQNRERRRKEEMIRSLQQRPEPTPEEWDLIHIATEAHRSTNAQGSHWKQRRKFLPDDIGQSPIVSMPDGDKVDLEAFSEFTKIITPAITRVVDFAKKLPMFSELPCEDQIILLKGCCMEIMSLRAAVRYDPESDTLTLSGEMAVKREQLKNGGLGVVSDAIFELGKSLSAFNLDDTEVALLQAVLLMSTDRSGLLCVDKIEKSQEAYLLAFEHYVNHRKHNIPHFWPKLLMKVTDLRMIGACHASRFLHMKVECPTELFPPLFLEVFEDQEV
T2 sequence (P19793 1-462 partner): T1 sequence (P19793 1-462 partner)
The experiment in a line: HEK293T THR alpha/RXR luciferase reporter assay (Assay 2). The experiment is classed as cell-based. To be noted: Assay 2; for Emax: HEK-293T, Table 5, THRα, read-out: Activity category Assay 2 THRα (Emax); for EC50: Table 4, THR-alpha, read-out: Activity category Assay 2 (EC50, THR-alpha agonist activity). An outline of the steps:
as §1
A general note: Reporter assays use an easily measured gene product as a stand-in for the process of interest.

Bounds are passed on as bounds.

On to `Nc1nn(-c2cc(Cl)c(Oc3n[nH]c(=O)cc3-c3ccc4ccccc4c3)c(Cl)c2)c(=O)[nH]c1=O` [Compound 67-A, 6-amino-2-(3,5-dichloro-4-((4-(naphthalen-2-yl)-6-oxo-1,6-dihydropyridazin-3-yl)oxy)phenyl)-1,2,4-triazine-3,5(2H,4H)-dione], for which the maximum response (Emax) (commonly the maximal effect, on the per cent scale that the assay sets) in experiment [1] was less than 50%. Besides, in experiment [2], the Emax is less than 50% and the concentration giving a half-maximal response (EC50) (usually the concentration needed to bring the measured effect to its halfway point) is 1000 to 10000 nM.
Consider `CC(c1ccccc1)c1cc(Oc2c(Cl)cc(-n3nc(N)c(=O)[nH]c3=O)cc2Cl)n[nH]c1=O` (single isomer, unassigned) [Compound 164, 6-Amino-2-(3,5-dichloro-4-((6-oxo-5-(1-phenylethyl)-1,6-dihydropyridazin-3-yl)oxy)phenyl)-1,2,4-triazine-3,5(2H,4H)-dione], for which the Emax is greater than 75% in experiment [1] and 50 to 75% in experiment [2]. In experiment [2], the EC50 lay in the range of 250 to 1000 nM.
As to `Nc1nn(-c2cc(Cl)c(Oc3cc(-c4ccc5ccccc5c4)c(=O)[nH]n3)c(Cl)c2)c(=O)[nH]c1=O` [Compound 67, 6-amino-2-(3,5-dichloro-4-[[5-(naphthalen-2-yl)-6-oxo-1H-pyridazin-3-yl]oxy]phenyl)-4H-1,2,4-triazine-3,5-dione], in experiment [1], the Emax is 50 to 75% and the 50% effective concentration (EC50) lay within 50 to 250 nM. In addition, in experiment [2], the maximal response (Emax) was less than 50% and the 50% effective concentration (EC50) is greater than 10000 nM.
Regarding `Cc1cc(-n2nc(C#N)c(=O)[nH]c2=O)cc(C)c1Cc1ccc2c(c1)C1(CC1)C(=O)N2` [Compound 148, 2-(3,5-dimethyl-4-((2′-oxospiro[cyclopropane-1,3′-indolin]-5′-yl)methyl)phenyl)-3,5-dioxo-2,3,4,5-tetrahydro-1,2,4-triazine-6-carbonitrile], in experiment [1], the Emax fell in the range of 50 to 75% and the 50% effective concentration (EC50) lay within 1000 to 10000 nM. For the same molecule, in experiment [2], the Emax was less than 50% and the concentration for a half-maximal effect (EC50) fell in the range of 1000 to 10000 nM.
On to `Nc1nn(-c2cc(Cl)c(Oc3n[nH]c(=O)cc3-c3ccc4c(c3)CCCC4)c(Cl)c2)c(=O)[nH]c1=O` [Compound 72-A, 6-amino-2-(3,5-dichloro-4-[[6-oxo-4-(5,6,7,8-tetrahydronaphthalen-2-yl)-1H-pyridazin-3-yl]oxy]phenyl)-4H-1,2,4-triazine-3,5-dione], for which, in experiment [1], the Emax is 50 to 75% and the EC50 was in the range of 50 to 250 nM. Moreover, in experiment [2], the Emax is less than 50% and the concentration giving a half-maximal response (EC50) is greater than 10000 nM.
Take `Nc1nn(-c2cc(Cl)c(Oc3cc(C4CC5(CCC5)C4)c(=O)[nH]n3)c(Cl)c2)c(=O)[nH]c1=O` [Compound 94]: in experiment [1], the Emax fell in the range of 50 to 75% and the concentration for a half-maximal effect (EC50) fell in the range of 50 to 250 nM. Also, in experiment [2], the Emax was less than 50% and the concentration giving a half-maximal response (EC50) fell in the range of 1000 to 10000 nM.
Turning to `CC(C)c1n[nH]c2nnc(Oc3c(Cl)cc(-n4nc(C#N)c(=O)[nH]c4=O)cc3Cl)cc12` [Compound 75A, 2-(3,5-Dichloro-4-((3-isopropyl-1H-pyrazolo[3,4-c]pyridazin-5-yl)oxy)phenyl)-3,5-dioxo-2,3,4,5-tetrahydro-1,2,4-triazine-6-carbonitrile], the maximum response (Emax) in experiment [1] is 50 to 75%. In experiment [2], the Emax is less than 50% and the EC50 was greater than 10000 nM.
For the molecule `Cc1cc(-n2ncc(=O)[nH]c2=O)cc(C)c1Cc1ccc2[nH]cc(C(C)C)c2n1` [Compound 54, 2-[4-[(3-isopropyl-1H-pyrrolo[3,2-b]pyridine-5-yl)methyl]-3,5-dimethyl-phenyl]-1,2,4-triazine-3,5-dione], the results for the Emax in experiment [1] and in experiment [2] were greater than 75% and 50 to 75%, respectively. Further, the EC50 in experiment [1] and in experiment [2] was less than 50 nM each time.
Regarding `CC(C)c1c[nH]c2ccc(Oc3c(Cl)cc(-n4nc(C#N)c(=O)[nH]c4=O)cc3Cl)nc12` [Compound 18], the Emax in experiment [1] is greater than 75%; in experiment [2], 50 to 75%. The half-maximal effective concentration (EC50) in experiment [1] and in experiment [2] was 1000 to 10000 nM each time.
For the molecule `Cc1cc(-n2nc(N)c(=O)[nH]c2=O)cc(C)c1Cc1ccc(O)c(-c2ccccc2)n1` [Compound 43, 6-amino-2-[4-[(5-hydroxy-6-phenylpyridin-2-yl)-methyl]-3,5-dimethylphenyl]-4H-1,2,4-triazine-3,5-dione], in experiment [1], the maximum response (Emax) is greater than 75%. Also, in experiment [2], the maximum response (Emax) was greater than 75% and the EC50 is less than 50 nM.
